The subject of assay [1] is SCID mice reconstituted with CD4^+CD45RB^HI T cells. The experiment in a line: SCID-IBD mouse model, treatment from day 1 for 4 weeks. Type of assay: in vivo. The conditions noted are these: for loss of original BW: 4 weeks post-T cell transfer (controls lost 15-18%); for colitis, histological inflammation of colon (score 0-8): 29 days. The text has this:
A well-established animal model for IBD exists (see Leach et al., Am. J. Pathol., Vol. 148, No. 5, pp. 1503-1515 (1996), and Powrie et al., Int. Immunol., Vol. 5, No. 11, pp. 1461-1471 (1993)). It is known that the transfer of syngeneic, naive T lymphocytes (CD4^+CD45RB^HI) into SCID mice results in a severe colitis and wasting disease, SCID-IBD. Histopathologically, features of both CD and UC are represented in this model which has been used throughout the 1990s to bring the understanding of the pathoetiology of this disease of immune dysregulation in man to its present status. There is no other animal model of IBD which is considered relevant for the human disease, both in mechanism and in validity of clinical treatment.
In this study, SCID mice reconstituted with CD4^+CD45RB^HI T lymphocytes were used. These mice are known to develop chronic colitis with characteristics similar to human IBD, as described above.
In this study, SCID mice were reconstituted with 2 x 10^5 CD4^+CD45RB^HI T cells and then treated with pimecrolimus (30, 60 and 100 mg/kg/day) or vehicle daily p.o. for 4 weeks. […] BW was monitored throughout. On termination, blood was withdrawn, spleen, mesenteric lymph nodes (MLN) and colon were removed. Serum haptoglobin levels were measured (ELISA), colitis was assessed histologically and lymphocyte and neutrophil numbers were calculated from FACS analysis of blood, spleen and MLN cell suspensions.
In order to determine the efficacy of ASM981 treatment in preventing intestinal mucosal damage in SCID-IBD mice, a histological examination of the colon sections was performed according to defined morphological parameters. All colon sections were assessed according to a scheme awarding degrees of severity governed by the extent of cell infiltration and inflammation with a score of 8 being the maximum.

Assay [2] has the same test system. As to the kind of experiment: SCID-IBD mouse model, delayed treatment of established IBD. Type of assay: in vivo. The conditions noted are these: 100 mg/kg/day p.o. started after 7, 14 or 21 days, until 41 days. Here is the method:
In order to determine if pimecrolimus is also effective once IBD is established, SCID mice were treated with pimecrolimus at a dose level of 100 mg/kg/day at days 7, 14 or 21 following the transfer of the disease causing CD4^+ T cells. The study was terminated after 41 days, i.e., the mice were treated for 33, 26 and 19 days, respectively.
SCID mice were reconstituted with 2 x 10^5 CD4^+CD45RB^HI T cells and treatment with pimecrolimus (100 mg/kg/day p.o.) started after 7, 14 or 21 days and continued daily until 41 days. Treatment with the placebo formulation started after 7 days. BW was monitored once a week for the first 2 weeks and then twice weekly. Data are expressed as mean percent BW relative to the weight on day 0 ± s.e.m. for n = 9 (PBS), n = 8 (ASM(7d) & ASM(21d) and n = 7 (ASM(14d) and placebo) mice per group. PBS refers to the non-transferred mice which have been pooled with regard to percent BW values since no treatment dependent changes were found. p<0.01 relative to the placebo-treated group at 41 days.
SCID mice were reconstituted with 2 x 10^5 CD4^+CD45RB^HI T cells and treatment with pimecrolimus (100 mg/kg/day p.o.) started after 7, 14 or 21 days and continued daily until 41 days. Treatment with the placebo formulation started after 7 days. On day 41, mice were killed and serum kept for haptoglobin assay. Data are expressed as mean haptoglobin (mg/mL) ± s.e.m. for n = 9 (PBS), n = 8 (ASM(7d)) and n = 7 (ASM(14d), ASM(21d) and placebo) mice per group. […]
SCID mice were reconstituted with 2 x 10^5 CD4^+CD45RB^HI T cells and treatment with pimecrolimus (100 mg/kg/day p.o.) started after7, 14 or 21 days and continued daily until 41 days. […] Data are expressed as the mean neutrophil numbers, calculated from the percent positive cells and the total cell number per sample, ± s.e.m. for n mice (n in each bar) per group. p<0.05 calculated relative to the placebo-treated group.

In the next assay the test system is pulmonary eosinophilia. As to the kind of experiment: Antigen-induced pulmonary eosinophilia in actively sensitized rats. It counts as in vivo, Brown Norway Rats. The following applies: given orally as a microemulsion or dissolved in Neoral placebo. An excerpt: Another study looked at the effects of oral administration of pimecrolimus on antigen-induced pulmonary eosinophilia in actively sensitized Brown Norway Rats.

Assay [3] has as its system allergic contact dermatitis (ACD). The experiment in a line: Mouse model of allergic contact dermatitis (ACD). It counts as in vivo. The following applies: oral, same doses.
In another assay the test system is promoter for human IL-2. As to the kind of experiment: IL-2 reporter gene assay. The following applies: concentration required for 50% inhibition. Type of assay: cell-based. An excerpt: This assay method is disclosed and enabled in U.S. Patent No. 5,897,990, which is hereby incorporated by reference in its entirety and for all purposes.
The cell line is preferentially a human T-cell or macrophage cell line, e.g., a Jurkat cell line, preferably selected for high native production of the desired gene product, for example, producing IL-2 in response to stimulation in the case of an IL-2 reporter gene assay. The reporter gene is any gene expressing a readily observable product, e.g., an enzyme marker such as β-galactosidase or luciferase, or any other suitable enzyme marker. For example, where the enzyme marker is β-galactosidase, the reporter gene is, e.g., a bacterial lacZ gene; where the enzyme marker is luciferase, the gene is, e.g., a Phorinus luciferase gene. Another suitable marker is the gene for the green fluorescent protein produced by the bioluminescent jellyfish, e.g., as described in Chalfie et al., Science, Vol. 263, pp. 802-805 (1994). The promoter gene is a promoter gene for a cytokine or protein for which transcription is stimulated or suppressed by the drug to be monitored.
Blood samples from the patient are diluted, their effect on gene expression in the above described system is measured, and the assay is standardized using known concentrations of the immunosuppressive material.

Assay [4] concerns mixed-lymphocyte reaction. As to the kind of experiment: mixed-lymphocyte reaction (MLR) assay. Type of assay: cell-based. The following applies: Mus musculus. The text has this:
In addition to the IL-2 reporter gene assay, the concentration of immunosuppressants, such as pimecrolimus and FK506 can be measured by the mixed-lymphocyte reaction (see Meo, The MLR in the Mouse", Immunological Methods, Lefkovits and Pemis, Eds., p. 227 Academic Press, NY).

Setting [5] is: dose range 30-100 mg/kg/day p.o.

The structures appear in SMILES notation.

The results in this text go back to patent EP1649856A2, “Use of pimecrolimus for selective immunomodulation” (Novartis AG, priority 2001, dated 2002).

By IC50 is commonly meant the concentration at which inhibition is half-maximal. Regarding `CC[C@@H]1/C=C(\C)C[C@H](C)C[C@H](OC)[C@H]2O[C@@](O)(C(=O)C(=O)N3CCCC[C@H]3C(=O)O[C@H](/C(C)=C/[C@@H]3CC[C@H](Cl)[C@H](OC)C3)[C@H](C)[C@@H](O)CC1=O)[C@H](C)C[C@@H]2OC` [pimecrolimus, 33-epichloro-33-desoxy-ascomycin], in assay [1] (30 mg/kg/day p.o.), the “loss of original BW” value is listed as 7.1% and the “colitis, histological inflammation of colon (score 0-8)” value (from here on “colitis, histological inflammation”) is “moderate to severe”. In assay [1] (60 mg/kg/day p.o.), the “block of neutrophil infiltration into the colon (MPO activity)” value came to 72%; the “loss of original BW” value is listed as 8.8%; the “colitis, histological inflammation” value is given as “moderate”. Besides, in assay [1] (100 mg/kg/day p.o.), the “mice with macroscopically normal feces (diarrhea)” value is given as “Approximately half of the mice”; the “neutrophil infiltration into the colon (MPO activity)” value is on record as “completely blocked”; the “loss of original BW” value was 3.2%; the “colitis, histological inflammation” value is on record as “only mildly inflamed colons”. Further, in assay [1] (setting [5]), the “reduction of Haptoglobin production (serum)” value is 68-92%, the “reduction of blood neutrophilia” value was 85-96% and the “reduction of spleen neutrophilia” value is listed as 74-83%. For the same compound, in assay [1] (up to 100 mg/kg/day p.o.), the “lymphocyte numbers in MLN” value is recorded as “significant reduction” and the “lymphocyte numbers in blood or spleen” value is on record as “did not significantly affect”. For the same compound, in assay [2], the “acute phase response (serum haptoglobin) in established IBD” value is “inhibits the ongoing acute phase response”; the “blood and spleen neutrophilia in established/ongoing colitis” value is listed as “strongly inhibits”; the “loss of BW in established/ongoing colitis” value was “highly-effective in reversing the loss of BW”. In the assay on pulmonary eosinophilia, the antigen-induced pulmonary eosinophilia entry was “effective”. Moreover, in assay [3], the “efficacy compared with FK506” value is recorded as “equipotent”. This compound had an IC50 in the assay with promoter for human IL-2 of 1.5 nM. For the same compound, the IC50 in assay [4] is 9 nM.
